Source: patent US20250262167A1, “COMPOUNDS, TARGETS AND PATHWAYS FOR MACROPHAGE MODULATION” (Massachusetts Institute of Technology, priority 2020, published 2025)

Columns and labels:
[1] = system: hMDMs differentiated into M2 by IL-4 plus IL-13; experiment: Reprogramming screen and dosage response on M2-like differentiated macrophages; conditions: Homo sapiens, Macrophage, 24 h, read-out: EC;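 note: human monocyte-derived macrophages held 24 h in 5 ng/mL IL-4 plus IL-13 before 24 h compound exposure, with cell shape measured from images in 384-well plates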
Protocol: Shown are comparison of Z-scores between 5 μM or 10 μM of compounds. […] Shown are comparison of Z-scores between 5 μM or 10 μM of compounds. […] EC and fitness of 21 M1-polarizing (triangle) and 19 M2-polarizing compounds (circle) were calculated by the Michaelis-Menten equation and plotted. Data were summarized from 3 independent experiments.
Human macrophages were seeded into optical 384-well plates. Sixteen hours later, medium in M1 plates were replaced by M1 differentiating medium (complete RPMI with 50 ng/mL IFNγ and 50 ng/mL TNFα) and medium in M2 plates by M2 differentiating medium (complete RPMI with 5 ng/mL IL-4 and 5 ng/mL IL-13). After 24 hrs cell differentiation, M1 plates (M1 macrophages) and M2 plates (M2 macrophages) were treated with M2-activating compounds and M1-activating compounds respectively for 24 hrs. Two independent experiments were performed with or without replacing differentiating medium right before treatment. Cell imaging and analysis were performed as indicated above.
To investigate whether the identified compounds could reprogram or reactivate macrophages after M1- or M2-like differentiation, we rescreened the hits on M1- or M2-activated macrophages. hMDMs were activated into M2-like macrophages by IL-4 plus IL-13 or M1-like macrophages by IFNγ plus TNFα. After removing the differentiating cytokines, M2-like macrophages were treated with each of the 166 M1-activating compounds and M1-like macrophages were treated with each of the 180 M2-activating compounds at a final concentration of either 5 μM and 10 μM. 24 hours later, cell images were taken and cell shapes were quantified. […] Dosage responses were carried out with 40 commercial available compounds (21 M1-activating and 19 M2-activating) on polarized macrophages.
We also rescreened the hits on differentiated macrophages in the presence of differentiating cytokines: either IL-4 plus IL-13 or IFNγ plus TNFα.

[2] = KC-specific Pkm−/− mice
Protocol: FIGS. 24G-24H show DPI's effect on KC-specific Pkm^−/− mice fed with HFD. Male KC-specific Pkm^−/− mice at the age of 5 weeks were fed with HFD for a total of 8 weeks. Three weeks after HFD, half of the mice were given DPI in vehicle (2 mg/kg) and the other half were given vehicle every 5 days for a total of 6 doses. Body weights were monitored weekly (FIG. 24G). Data are presented as the mean±sd from two independent experiments with 6 mice per group. Comparison of H&E staining of liver sections after 8 weeks on HFD. Shown are representative H&E staining from one mouse per group. Arrows in FIG. 24F and FIG. 24H point to lipid droplets. Scale bar: 100 μm. P values were calculated by student t-test. * P<0.05, ** P<0.01, *** P<0.001, **** P<0.0001.
FIGS. 34A-34C show effect of DPI on Kupffer cell-specific Pkm^−/− mice on HFD. […] KC-specific Pkm^−/− mice were given HFD for a total of 8 weeks. Three weeks after HFD, half of the mice were given DPI in vehicle (2 mg/kg) and the other half were given vehicle every 5 days for a total of 6 doses. At 7 weeks plus 3 days, mice were starved overnight (12˜16 hrs) with only water. Glucose (1 mg/kg) was injected intraperitoneally and blood glucose levels were monitored at the indicated time. […] Sera from mice were collected at the end of HFD feeding and activities of AST and ALT were measured by colorimetric assay kits (Sigma). Shown are representative data from two independent experiments with 5˜6 mice per group. P values were calculated by student t-test. n.s. not significant. * P<0.05.
KC-specific Pkm^−/− mice were fed with HFD for 8 weeks starting at 5 weeks of age. Three weeks after HFD, half of the mice were given vehicle and the other half was given DPI (2 mg/kg) i.p. every 5 days.

[3] = HFD 16 weeks
Protocol: At week 15 plus 3 days, mice from FIG. 32A were starved overnight (12˜16 hrs) with only water. Glucose (1 mg/kg) was injected intraperitoneally and blood glucose levels were measured at the indicated time. AUC were calculated for statistics (right panel).
Liver samples fixed in 10% buffered formalin were embedded in paraffin, sliced (2 μm sections), and stained with hematoxylin and eosin (H&E). Histological examination for morphological changes was performed in a blinded manner. Liver sections were scored according to the criteria of the NAFLD activity score (NAS).
The GTT were performed in mice 19 weeks after feeding with HFD or NC. For GTT, mice were fasted overnight, followed by an intraperitoneal injection of 1 g/kg glucose. […] Blood was obtained from the tail vein before (0 min) and after (15, 30, 60, 90 and 120 min) the injection of glucose or insulin. Glucose levels were measured using an automatic glucometer (Roche Diagnostics, Rotkreuz, Switzerland).
B6 mice were fed with HFD for 16 weeks.

[4] = system: mouse bone marrow macrophages (BMMs); experiment: Development and function of TAM/M2-like macrophages in vitro (qPCR, flow cytometry); type: cell-based
Protocol: DEGs were identified by edgeR at P<0.05 with at least 2 fold-change. Data for genes that were not classified as differentially expressed are plotted in black. […] Mouse BMMs were cultured in normal medium with or without 2.5 μM thiostrepton for 24 hrs (group 1), or cultured in B16F10 tumor cell conditioned medium (CM) with or without 2.5 μM thiostrepton for 24 hrs (group 2), or cultured with B16F10 tumor cell CM for 24 hrs first and then treated with 2.5 μM thiostrepton for another 24 hrs (group 3). The transcript levels of the indicated genes were quantified by qPCR. Data were summarized from two independent experiments. […] Mouse BMMs were treated with thiostrepton for 24 hrs. Untreated and treated macrophages were co-cultured with equal number of B16F10 melanoma cells for 12 hrs. The number of tumor cells were quantified by flow cytometry after subtracting macrophages from total number of cells. Data were summarized from three independent experiments. ** P<0.01 by T-test.
Expression of MHCII, CD80, iNOS, Arg1 and CD206 were quantified by flow cytometry. Shown are representative staining profiles of treated (red) and untreated (dark) TAMs from two independent experiments. […] Alternatively, mouse BMMs were polarized with IL-4/IL-13 (group 3) or lactic acid (group 5) for 24 hrs first and then either not treated or treated with […] thiostrepton for another 24 hrs. The transcript levels of the indicated genes were quantified by qPCR. Data are summarized from two independent experiments.
Mouse BMMs were not treated or treated with […] thiostrepton for 24 hours in normal medium (group 1) or in the presence of IL4/IL13 (group 2), or mouse BMMs were polarized with IL4/IL13 for 24 hours and then either not treated or treated with […] thiostrepton for 24 hours (group 3). RNA was isolated and the transcript levels of the indicated genes were quantified by PCR. Data, shown as mean±s.d., were summarized from two independent experiments. * P<0.05 and ** P<0.01 by T-test. […] Data are shown as mean±s.e.m. FIGS. 19C-19D show flow cytometry analysis of TAM (F4/80^+CD11b^+Ly6C^−Ly6G^−), inflammatory monocytes (F4/80′^intCD11b^+Ly6C^+Ly6G^−) and monocytes (F4/80^−CD11b^+Ly6C^+Ly6G^+) in the tumors of mice treated with DMSO, TA99, cucurbitacin I, and cucurbitacin I plus TA99 18 days after tumor engraftment. Shown are representative F4/80 versus CD11b staining profiles gating on CD45+ cells and MHCII histograms gating on macrophages from c.
Mouse bone marrow-derived macrophages (mBMM) were prepared as described previously^54. Briefly, fresh bone marrow cells were isolated from B6 mice. Cells were plated into 6-well plate with 1×10^6/mL in complete RPMI with 2-mercaptoethanol and cultured for 6 days with fresh medium change every 2 days. mBMMs were differentiated to resemble TAMs in the presence of 10 ng/mL mIL-4 and mIL-13 (Peprotech) or 25 mM lactate acid for 24 hrs or tumor conditioned medium (CM). To prepare CM, 70% confluent B16F10 cultured were replaced with fresh medium and the tumor medium was collected and filtered ([…]) 24 hrs later. The mixture of 3 volumes of tumor medium with 1 volume of complete RPMI for mBMM serves as the CM. Expression of Arg, Fizz1 and Vegfa were quantified by qPCR to assess the development of TAMs. Other genes of Tnf, Il1b, Nos2, Cxcl2, Ccl5, Ym1 and Tgfb serve as macrophage activating markers. To assay the tumor growth inhibition, mBMMs (10,000 cells per well in 96 well plate) were treated with thiostrepton for 24 hrs and then cocultured with equal number of B16 melanoma cells in fresh complete RPMI for 12 hrs. The conditioned medium treated or not treated with thiostrepton were collected and filtered. The numbers of B16 melanoma cells were cultured for 12 hrs with conditioned medium or conditioned medium heated at 95° C. for 5 min. Tumor cells were quantified by flow cytometry to determine the macrophage-dependent killing function. […]

[5] = BMMs in B16F10 conditioned medium, 2.5 μM, 24 hrs, qPCR
[6] = BMMs in B16F10 conditioned medium, flow cytometry
[7] = IL-4/IL-13 and lactic acid-polarized BMMs, qPCR

SMILES | EC (M1 Z-score cutoff) [1] [µM] | iWAT [2] | HFD-induced body-weight gain and lipid droplet deposition in the livers ([2]; 2 mg/kg i.p. every 5 days) | glucose tolerance, serum AST and ALT levels ([2]; with or without DPI) | glucose tolerance [3] | lipid droplet, steatosis and collagen deposition in the liver [3] | weight gain ([3]; 2 mg/kg every 5 days from week 9) | weight of iWAT ([3]; vs vehicle) | expression of M1-associated genes Tnf, Il1b, Cxcl2 and Nos2 [4, 5] | expression of TAM/M2-associated genes Arg1, Fizz1, Vegfa, Ym1 and Tgfb [4, 5] | ARG1 [4, 6] | MHCII, CD80 and iNOS [4, 6] | expression of Arg1, Fizz1, Ym1 and Tgfb [4, 7] | expression of Tnf, Il1b, Cxcl2 and Ccl5 [4, 7]
c1ccc2c(c1)[I+]c1ccccc1-2 [Diphenyleneiodonium chloride] | 0.336 | significantly lower level | did not reduce | similar | increased | reduced | significantly reduced | significantly lower |  |  |  |  |  | 
C=C(NC(=O)C(=C)NC(=O)c1csc(C2=N[C@@H]3c4csc(n4)[C@H]4NC(=O)c5csc(n5)[C@H]([C@](C)(O)[C@@H](C)O)NC(=O)[C@H]5CSC(=N5)/C(=C/C)NC(=O)[C@H]([C@@H](C)O)NC(=O)c5csc(n5)[C@]3(CC2)NC(=O)[C@H](C)NC(=O)C(=C)NC(=O)[C@H](C)NC(=O)[C@H]([C@@H](C)CC)N[C@@H]2C=Cc3c([C@H](C)O)cc(nc3[C@H]2O)C(=O)O[C@@H]4C)n1)C(N)=O [Thiostrepton] | 0.408 |  |  |  |  |  |  |  | up-regulated | inhibited | down-regulation | up-regulation | inhibited | elevated
